For this assay, the species on record is Mus musculus. Kind of assay: Tested for inhibition of sperm-egg fusion in in vitro mouse fertilization assays. In kind it is functional.

pIC50: −log10 of the molar value. Where a SMILES comes first, the peptide text is derived from it.

Here are results for one compound from ChEMBL document CHEMBL1129908, “ECD peptides inhibit in vitro fertilization in mice” (Bioorg Med Chem Lett, 1997).

The pIC50 is the negative decadic logarithm of the IC50, by convention in mol/L.

Regarding `CC(C)C[C@H](NC(=O)[C@H](CCCN=C(N)N)NC(=O)[C@@H](N)CS)C(=O)N[C@@H](C)C(=O)N[C@@H](CCC(N)=O)C(=O)N[C@@H](CC(=O)O)C(=O)N[C@@H](CCC(=O)O)C(=O)N[C@@H](C)C(=O)N[C@@H](CC(=O)O)C(=O)N[C@H](C(=O)N[C@H](C(=O)N[C@@H](CCC(=O)O)C(=O)N[C@@H](Cc1ccc(O)cc1)C(=O)N[C@@H](CS)C(=O)O)[C@@H](C)O)C(C)C` (H-CRLAQDEADVTEYC-OH), the pIC50 was 3.60.
